Target: T1, recombinant human ACSS2 (Homo sapiens, UniProt Q9NR19)
T1 construct: purchased Origene TP304260
Test: ACSS2 biochemical assay (Transcreener AMP assay)
Details: in vitro biochemical TranScreener assay; mean±S.D., n≥3 (FIG. 1C)
Protocol: ACSS2 enzyme activity was measured using the TRANSCREENER® TRF AMP/GMP assay (Bellbrook Labs). Recombinant ACSS2 was purchased from Origene. The assay was performed in white, opaque, low volume 384 well plates. Test compounds were diluted in 100% DMSO and then 100 nL of each dilution was transferred using the Janus MDT Nanohead to assay plates containing 3 μL ACSS2 (2.5 nM) in assay buffer (30 mM HEPES, pH 7.4, 140 mM NaCl, 2 mM MgCl2, 5 mM sodium acetate, 2 mM DTT, 0.005% Brij35). Three microliters of substrate mix containing 100 μM ATP and 10 μM coenzyme A was added to the plates followed by a 120 min incubation. The final concentrations of enzyme and substrates in the reaction mix was 1.25 nM ACSS2, 50 μM ATP, and 5 μM coenzyme A. After incubation, 3 μL of terbium conjugated AMP antibody and AMP tracer was added to the plates according to the methods described by BellBrook Labs. After an additional 30 min, the HTRF signal was measured using an Envision Plate reader. Data were normalized to % inhibition, where 100% inhibition is equal to the counts obtained in the absence of ACSS2, and 0% inhibition is equal to the counts obtained in the complete reaction including a DMSO control.
A robust biochemical screening assay was set up for testing compounds as potential ACSS2 inhibitors. […]

T1 sequence (Q9NR19 whole entry): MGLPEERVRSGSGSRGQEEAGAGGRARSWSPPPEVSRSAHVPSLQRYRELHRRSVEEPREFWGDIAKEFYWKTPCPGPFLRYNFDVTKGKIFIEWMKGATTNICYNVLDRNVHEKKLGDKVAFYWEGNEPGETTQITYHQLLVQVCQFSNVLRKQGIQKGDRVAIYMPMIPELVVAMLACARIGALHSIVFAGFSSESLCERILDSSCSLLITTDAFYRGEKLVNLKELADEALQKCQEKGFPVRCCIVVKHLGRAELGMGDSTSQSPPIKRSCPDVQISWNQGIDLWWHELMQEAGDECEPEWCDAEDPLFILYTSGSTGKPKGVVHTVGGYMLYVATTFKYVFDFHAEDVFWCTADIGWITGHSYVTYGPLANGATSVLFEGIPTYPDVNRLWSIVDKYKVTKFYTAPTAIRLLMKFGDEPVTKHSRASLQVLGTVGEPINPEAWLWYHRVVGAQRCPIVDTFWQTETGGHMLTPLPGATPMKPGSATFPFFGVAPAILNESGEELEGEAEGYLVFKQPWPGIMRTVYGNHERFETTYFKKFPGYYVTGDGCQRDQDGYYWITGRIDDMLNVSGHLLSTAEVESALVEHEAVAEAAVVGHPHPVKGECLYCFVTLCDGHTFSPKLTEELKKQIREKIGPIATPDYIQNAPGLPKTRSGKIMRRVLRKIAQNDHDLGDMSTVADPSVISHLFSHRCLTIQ

IC50: 1.21 ± 0.128 µM
SMILES: COCCNC(=O)Nc1ccc2nc(-c3cccs3)c(-c3cccs3)nc2c1 [VY-3-249, 1-(2,3-di(thiophen-2-yl)quinoxalin-6-yl)-3-(2-methoxyethyl)urea]

Reference: patent US12281084B2, “Acetyl-CoA synthetase 2 (ACSS2) inhibitors and methods using same” (The Wistar Institute, priority 2019, dated 2025)
